Key:
[1] = Oral soft gelatin capsules in human (Example VIII); type: in vivo; conditions: two oral capsules, 225 mg of composition each, 60 kg human
Procedure: (§1) A composition for oral administration is prepared by combining the following ingredients:
The octadecenamide is dissolved in the sesame oil with the aid of sonication and is packaged in soft gelatin capsules using methods known in the art.

[2] = Oral syrup in human (Example IX); type: in vivo; conditions: one teaspoon of syrup, 70 kg adult human
Procedure: as §1
The above ingredients are combined to produce a syrup and are packaged under sterile conditions in 6 oz. bottles.

[3] = Topical application to human forearm (Example X); type: in vivo; conditions: for local analgesic effect: replacing N-((4-(2-methyl-2-aminopropoxy)-3-methoxyphenyl)-methyl)-9Z-octadecenamide
Procedure: A composition for topical administration is prepared by combining the following ingredients:
The octadecenamide is dissolved in a solution containing the other ingredients. Application of 0.4 ml of the resulting liquid to a 80 cm^2 portion of the forearm of a 60 kg human produces local analgesia which lasts approximately two days.

[4] = Rodent Hot Plate Test; type: in vivo, male Sprague-Dawley rats
Procedure: The degree of thermal analgesia obtained is determined using the "rodent hot plate test" (RHP). The RHP system is designed to detect and evaluate agents which elevate the threshold for the perception of pain. Classically, this method has been utilized primarily to evaluate opioid (narcotic) analgesic agents, such as morphine.
Male Sprague-Dawley rats (Charles River Breeding Laboratories Inc.) weighing between 100 and 125 grams upon arrival are used to evaluate the compounds of the present invention. Animals are double housed in stainless steel cages, and are fed Purina Rat Chow and tap water ad libitum. The animals are food fasted the afternoon proceeding the day of the study, and food is returned 5 hours post-treatment. Animals not being dosed by oral gavage are not fasted.
The apparatus for evaluating analgesic activity consists of an insulated copper hot plate whose surface is maintained at 55°±0.5° C. by a circulating water bath. A bottomless glass container (12" (30 cm) tall by 8" (20 cm) diameter) is used to restrict the animal to a defined area of the hot plate. After dosing, the animal is placed through the top opening of the container, and a stop watch is started when the animal makes contact with the plate. The stop-watch is stopped upon either of the following visually observed end points: (1) licking or biting of either hind paw, or (2) jumping. If the jump is not successful but both hind paws leave the surface of the plate in an effort to jump, this is considered jumping. The stop-watch is stopped at the end point and the animal is immediately removed from the hot plate. The time (latency) between the initial contact of the animal on the hot plate and the endpoint is recorded.
Prior to dosing, animals are tested on the hot plate. This is denoted as pretest or base line latency. Usually, the animals are dosed by oral gavage, using a 1 cubic cm glass syringe connected to a size 8 french catheter. The dose volume is 5 ml/kg. On occasion, the animals are dosed by either subcutaneous administration or intravenous injection. Using the subcutaneous administration, a 1 ml tuberculin syringe is connected to a 25 gauge 5/8 inch needle, and injected under the skin in the neck or back region. For intravenous dosing, a 1 ml tuberculin syringe is connected to a 25 gauge 3/4 inch winged infusion set, and injected into the tail vein. The dose volume for subcutaneous and intravenous routes is 1 ml/kg. The latency times are typically recorded at 1.5, 3, 5, and 24 hours post-treatment. Much shorter times are recorded for an intravenous administration.

[5] = Mouse Abdominal Constriction Assay (phenylquinone writhing); type: in vivo, male CF-1 mice; conditions: for % Analgesia (3 hrs post-dose): 3 hrs post-dose (time of peak analgesic effect)
Procedure: Compounds of the present invention are tested for analgesic activity using the mouse abdominal constriction assay. This assay is described in Hendershot and Forsaith, J. Pharmacol. Exo.
Male CF-1 mice (Charles River Breeding Laboratories, Inc.), weighing approximately 20 grams and food fasted overnight, are used in these assays. Test compounds are prepared for oral (p.o.) or subcutaneous (s.c.) administration, with compounds of the present invention being prepared in acidified (1N acetic acid) distilled deionized water so that the appropriate dose is given in 0.2 mls to a 20 gram mouse.
Ten minutes after the i.p. injection of phenylquinone, the number of full body writhes are counted for the succeeding ten minutes. Percent analgesia in this assay is calculated as follows: [formula]

[6] = 100 mg/kg oral, 24 hr post dose
[7] = 0.4 ml to 80 cm^2 of forearm, 60 kg human

In the case of `CCCCCCCC/C=C\CCCCCCCC(=O)NCc1ccc(OCC(N)CO)c(OC)c1` (centres unmarked) [N-((4-(2-amino-3-hydroxypropoxy)-3-methoxyphenyl)-methyl)-9Z-octadecenamide], the analgesia [1] is reported as “increased analgesic effect”, the reduction of inflammation [1] is reported as “substantially similar reduction of inflammation” and the analgesia [2] is reported as “substantially similar reduction of inflammation and analgesic effect”. The reduction of inflammation [2] was “substantially similar reduction of inflammation” and the local analgesic effect [3] was “substantially similar local analgesic effect”.
With `CCCCCCCCNC(=O)Cc1ccc(OCCN)c(OC)c1` [N-octanyl-4-(2-aminoethoxy)-3-methoxyphenylacetamide] the analgesia [1] was “increased analgesic effect”, the reduction of inflammation [1] was “substantially similar reduction of inflammation” and the analgesia [2] was “substantially similar reduction of inflammation and analgesic effect”. The reduction of inflammation [2] was “substantially similar reduction of inflammation” and the local analgesic effect [3] was “substantially similar local analgesic effect”.
For `CCCCCCCC/C=C\CCCCCCCC(=O)NCc1ccc(OCC(N)C(=O)O)c(OC)c1` (centres unmarked) [N-((4-(2-amino-2-carboxyethoxy)-3-methoxyphenyl)-methyl)-9Z-octadecenamide], the analgesia [1] was “increased analgesic effect”, the reduction of inflammation [1] was “substantially similar reduction of inflammation” and the analgesia [2] was “substantially similar reduction of inflammation and analgesic effect”. The reduction of inflammation [2] was “substantially similar reduction of inflammation” and the local analgesic effect [3] was “substantially similar local analgesic effect”.
For `CCCCCCCCC(=O)NCc1ccc(OCCN)c(OC)c1` [N-((4-(2-aminoethoxy)-3-methoxyphenyl)-methyl)-nonanamide], the analgesia [1] was “increased analgesic effect”, the reduction of inflammation [1] was “substantially similar reduction of inflammation” and the analgesia [2] was “substantially similar reduction of inflammation and analgesic effect”. For the same molecule, the reduction of inflammation [2] was “substantially similar reduction of inflammation”, the “Mean Latency Times” value ([4]; 50 mg/kg oral, 3 hr post dose) was 7.5 s and the “Mean Latency Times” value ([4]; 50 mg/kg oral, 5 hr post dose) was 7.2 s. For the same molecule, the “Mean Latency Times” value ([4]; 50 mg/kg oral, 24 hr post dose) was 8.1 s, the “Mean Latency Times” value ([4]; 100 mg/kg oral, 3 hr post dose) was 9.9 s and the “Mean Latency Times” value ([4]; 100 mg/kg oral, 5 hr post dose) was 10.2 s. The “Mean Latency Times” value [4, 6] was 12.3 s, the “Mean Latency Times” value ([4]; 200 mg/kg oral, 3 hr post dose) was 10.8 s and the “Mean Latency Times” value ([4]; 200 mg/kg oral, 5 hr post dose) was 16.4 s. For the same molecule, the “Mean Latency Times” value ([4]; 200 mg/kg oral, 24 hr post dose) was 22.0 s, the “Mean Latency Times” value ([4]; 300 mg/kg oral, 3 hr post dose) was 14.1 s and the “Mean Latency Times” value ([4]; 300 mg/kg oral, 5 hr post dose) was 14.6 s. For the same molecule, the “Mean Latency Times” value ([4]; 300 mg/kg oral, 24 hr post dose) was 20.3 s.
With `CCCCCCCCC(=O)NCc1ccc(OCC(C)(C)N)c(OC)c1` [N-((4-(2-methyl-2-aminopropoxy)-3-methoxyphenyl)-methyl)-nonanamide] the local analgesic effect [3] was “substantially similar local analgesic effect”.
In the case of `CCCCCCCC/C=C\CCCCCCCCNC(=O)Cc1ccc(OCCN)c(OC)c1` [N-(9Z-octadecenyl)-4-(2-aminoethoxy)-3-methoxyphenylacetamide], the analgesia [1] is reported as “increased analgesic effect”, the reduction of inflammation [1] is reported as “substantially similar reduction of inflammation” and the analgesia [2] is reported as “producing analgesia”. For the same molecule, the reduction of inflammation [2] was “reducing inflammation”, the “Mean Latency Times” value ([4]; 10 mg/kg oral, 1.5 hr post dose) was 6.7 s and the “Mean Latency Times” value ([4]; 10 mg/kg oral, 3 hr post dose) was 15.3 s. For the same molecule, the “Mean Latency Times” value ([4]; 10 mg/kg oral, 5 hr post dose) was 13.5 s, the “Mean Latency Times” value ([4]; 10 mg/kg oral, 24 hr post dose) was 9.1 s and the “Mean Latency Times” value ([4]; 25 mg/kg oral, 1.5 hr post dose) was 10.5 s. The “Mean Latency Times” value ([4]; 25 mg/kg oral, 3 hr post dose) was 11.2 s, the “Mean Latency Times” value ([4]; 25 mg/kg oral, 5 hr post dose) was 10.8 s and the “Mean Latency Times” value ([4]; 25 mg/kg oral, 24 hr post dose) was 8.0 s. The “Mean Latency Times” value ([4]; 50 mg/kg oral, 1.5 hr post dose) was 24.5 s, the “Mean Latency Times” value ([4]; 50 mg/kg oral, 3 hr post dose) was 12.2 s and the “Mean Latency Times” value ([4]; 50 mg/kg oral, 5 hr post dose) was 10.6 s. The “Mean Latency Times” value ([4]; 50 mg/kg oral, 24 hr post dose) was 15.9 s, the “Mean Latency Times” value ([4]; 100 mg/kg oral, 1.5 hr post dose) was 16.4 s and the “Mean Latency Times” value ([4]; 100 mg/kg oral, 3 hr post dose) was 13.4 s. The “Mean Latency Times” value ([4]; 100 mg/kg oral, 5 hr post dose) was 11.9 s, the “Mean Latency Times” value [4, 6] was 21.5 s and the local analgesic effect [3] was “substantially similar local analgesic effect”.
With `COc1ccc2c3c1O[C@H]1[C@@H](O)C=C[C@H]4[C@@H](C2)N(C)CC[C@@]341` [Codeine Phosphate, reference compound] the “Mean Latency Times” value ([4]; 50 mg/kg oral, 1 hr post dose) was 8.7 s, the “Mean Latency Times” value ([4]; 50 mg/kg oral, 2 hr post dose) was 6.4 s and the “Mean Latency Times” value ([4]; 50 mg/kg oral, 4 hr post dose) was 6.5 s. The “Mean Latency Times” value ([4]; 100 mg/kg oral, 1 hr post dose) was 8.5 s, the “Mean Latency Times” value ([4]; 100 mg/kg oral, 2 hr post dose) was 8.9 s and the “Mean Latency Times” value ([4]; 100 mg/kg oral, 4 hr post dose) was 6.0 s. For the same molecule, the “Mean Latency Times” value ([4]; 200 mg/kg oral, 1 hr post dose) was 16.9 s, the “Mean Latency Times” value ([4]; 200 mg/kg oral, 2 hr post dose) was 21.0 s and the “Mean Latency Times” value ([4]; 200 mg/kg oral, 4 hr post dose) was 11.7 s. The “Mean Latency Times” value ([4]; 400 mg/kg oral, 1 hr post dose) was 26.5 s, the “Mean Latency Times” value ([4]; 400 mg/kg oral, 2 hr post dose) was 28.4 s and the “Mean Latency Times” value ([4]; 400 mg/kg oral, 4 hr post dose) was 24.6 s.
In the case of `CCCCCCCC/C=C\CCCCCCCC(=O)NCc1ccc(OC[C@@H](N)C(C)C)c(OC)c1` [N-((4-(2(S)-amino-3-methylbutoxy)-3-methoxyphenyl)methyl)-9Z-octadecenamide], the analgesia [1] is reported as “increased analgesic effect”, the reduction of inflammation [1] is reported as “substantially similar reduction of inflammation” and the analgesia [2] is reported as “substantially similar reduction of inflammation and analgesic effect”. The reduction of inflammation [2] was “substantially similar reduction of inflammation” and the local analgesic effect [3] was “substantially similar local analgesic effect”.
For `CCCCCCCC/C=C\CCCCCCCC(=O)NCc1ccc(OCCC(C)COCC(C)(C)N)c(OC)c1` (centres unmarked) [N-((4-(2-methyl-2-aminopropoxy)-3-methylbutoxy)-3-methoxyphenyl)methyl)-9Z-octadecenamide], the analgesia [2] was “substantially similar reduction of inflammation and analgesic effect” and the reduction of inflammation [2] was “substantially similar reduction of inflammation”.
With `CCCCCCCC/C=C\CCCCCCCC(=O)NCc1ccc(OCC(C)(C)N)c(OC)c1` [N-((4-(2-methyl-2-aminopropoxy)-3-methoxyphenyl)-methyl)-9Z-octadecenamide] the analgesia [1] was “increased analgesic effect”, the reduction of inflammation [1] was “substantially similar reduction of inflammation” and the “duration of local analgesia” value [3, 7] was “approximately two”. The skin irritation [3, 7] was “Little or no skin irritation”.
With `CCCCCCCC/C=C\CCCCCCCC(=O)NCc1ccc(O)c(OC)c1` [N-Vanillyloleamide, N-vanillyloleamide, reference compound] the “% Analgesia (3 hrs post-dose)” value ([5]; 0.75 mg/kg subcutaneous) was 35.4%, the “% Analgesia (3 hrs post-dose)” value ([5]; 1.5 mg/kg subcutaneous) was 62.8% and the “% Analgesia (3 hrs post-dose)” value ([5]; 2.25 mg/kg subcutaneous) was 76.1%. For the same molecule, the “% Analgesia (3 hrs post-dose)” value ([5]; 100 mg/kg oral) was 36%, the “% Analgesia (3 hrs post-dose)” value ([5]; 200 mg/kg oral) was 60% and the “% Analgesia (3 hrs post-dose)” value ([5]; 400 mg/kg oral) was 79%. For the same molecule, the “time of peak analgesic effect” value ([5]; mouse, in vivo) was 3 hours post-dose.

From patent publication US5099030A, “Novel compounds, pharmaceutical compositions, and methods for treating inflammation and pain” (The Procter & Gamble Company, priority 1991, dated 1992)
